Data reported in patent US9045493B2, “Furo[3,2-b]- and thieno[3,2-b]pyridin derivatives” (Merck Patent GmbH, priority 2012, dated 2015).

What was measured:
[1] = target: T1, IKKε (Homo sapiens, UniProt Q14164); assay: IKKε kinase assay (384-well Flashplate); format: biochemical; conditions: 10 μM ATP, 2 hours at 30° C.; read-out: IKKε enzyme assay IC50
T1 sequence (Q14164 1-716): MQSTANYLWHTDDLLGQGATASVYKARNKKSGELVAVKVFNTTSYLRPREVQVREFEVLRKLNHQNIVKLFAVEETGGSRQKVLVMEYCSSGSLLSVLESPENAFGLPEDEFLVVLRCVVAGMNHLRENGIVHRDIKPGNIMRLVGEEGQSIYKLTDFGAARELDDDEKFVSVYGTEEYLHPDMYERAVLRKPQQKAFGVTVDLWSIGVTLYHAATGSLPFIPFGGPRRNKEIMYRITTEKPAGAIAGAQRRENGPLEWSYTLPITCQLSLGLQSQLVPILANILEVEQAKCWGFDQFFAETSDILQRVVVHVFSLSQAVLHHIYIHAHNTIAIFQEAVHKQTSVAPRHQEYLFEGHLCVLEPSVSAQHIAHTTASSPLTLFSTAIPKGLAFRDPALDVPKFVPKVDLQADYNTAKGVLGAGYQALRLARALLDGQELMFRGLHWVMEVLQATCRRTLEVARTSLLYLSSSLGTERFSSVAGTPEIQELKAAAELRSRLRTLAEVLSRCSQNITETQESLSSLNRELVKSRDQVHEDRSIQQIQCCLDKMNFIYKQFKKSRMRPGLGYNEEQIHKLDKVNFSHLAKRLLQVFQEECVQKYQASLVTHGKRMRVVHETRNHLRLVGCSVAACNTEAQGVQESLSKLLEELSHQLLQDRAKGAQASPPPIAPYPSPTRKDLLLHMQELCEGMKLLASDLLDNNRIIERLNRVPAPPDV
Procedure: The kinase assay is performed either as 384-well Flashplate assay (for e.g. Topcount measurement).
1 nM IKKε, 800 nM biotinylated IκBα(19-42) peptide (Biotin-C6-C6-[…]) and 10 μM ATP (spiked with 0.3 μCi ^33P-ATP/well) are incubated in a total volume of 50 μl (10 mM MOPS, 10 mM Mg-acetat, 0.1 mM EGTA, 1 mM Dithiothreitol, 0.02% Brij35, 0.1% BSA, 0.1% BioStab, pH 7.5) with or without test compound for 2 hours at 30° C. The reaction is stopped with 25 μl 200 mM EDTA. After 30 Min at room temperature the liquid is removed and each well washed thrice with 100 μl 0.9% sodium chloride solution. […] Radioactivity is measured with Topcount (PerkinElmer). Results (e.g. IC50-values) are calculated with program tools provided by the IT-department (e.g. AssayExplorer, Symyx).

[2] = target: T2, TANK binding kinase (TBK1) (Homo sapiens, UniProt Q9UHD2); assay: TBK1 enzyme assay (384-well Flashplate kinase assay); format: biochemical; conditions: 10 μM ATP, 120 Min at 30° C.
T2 sequence (Q9UHD2 1-729): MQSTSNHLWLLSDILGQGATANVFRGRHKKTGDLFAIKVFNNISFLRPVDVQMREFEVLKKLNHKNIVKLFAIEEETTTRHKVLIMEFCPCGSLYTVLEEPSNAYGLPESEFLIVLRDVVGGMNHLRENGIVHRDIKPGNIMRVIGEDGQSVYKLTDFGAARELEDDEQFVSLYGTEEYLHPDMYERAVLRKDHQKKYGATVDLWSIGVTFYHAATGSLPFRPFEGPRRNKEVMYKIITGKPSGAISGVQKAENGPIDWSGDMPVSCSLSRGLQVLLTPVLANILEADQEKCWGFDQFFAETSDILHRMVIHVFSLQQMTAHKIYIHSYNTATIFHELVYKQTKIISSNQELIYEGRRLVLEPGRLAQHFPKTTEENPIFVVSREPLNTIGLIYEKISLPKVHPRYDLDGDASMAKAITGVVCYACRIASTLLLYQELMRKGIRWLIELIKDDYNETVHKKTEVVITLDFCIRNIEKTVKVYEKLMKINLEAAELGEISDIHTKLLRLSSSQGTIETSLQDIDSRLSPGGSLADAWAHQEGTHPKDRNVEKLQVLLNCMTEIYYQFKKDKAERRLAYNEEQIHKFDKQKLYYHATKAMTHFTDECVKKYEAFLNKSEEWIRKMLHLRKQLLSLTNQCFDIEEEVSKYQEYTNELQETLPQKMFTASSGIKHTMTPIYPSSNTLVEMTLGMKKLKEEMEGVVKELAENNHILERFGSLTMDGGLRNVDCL
Procedure: The kinase assay is performed as 384-well Flashplate assay (for e.g. Topcount measurement.
0.6 nM TANK binding kinase (TBK1), 800 nM biotinylated MELK-derived peptide (Biotin-Ah-Ah-[…]) and 10 μM ATP (spiked with 0.25 μCi ^33P-ATP/well) are incubated in a total volume of 50 μl (10 mM MOPS, 10 mM Mg-acetat, 0.1 mM EGTA, 1 mM DTT, 0.02% Brij35, 0.1% BSA, pH 7.5) with or without test compound for 120 Min at 30° C. The reaction is stopped with 25 μl 200 mM EDTA. After 30 Min at room temperature the liquid is removed and each well washed thrice with 100 μl 0.9% sodium chloride solution. Nonspecific reaction is determined in presence of 100 nM Staurosporine. Radioactivity is measured in a Topcount (PerkinElmer). Results (e.g. IC50-values) are calculated with program tools provided by the IT-department (e.g. AssayExplorer, Symyx).

SMILES	IC50 [1]	IC50 [2]
CC(CO)(CO)COc1ccc(-c2ccnc3cc(-c4ccc(C(=O)N5CCNCC5)cc4)oc23)cc1C#N [Compound A60]	< 300 nM	300 to 3000 nM
N#Cc1cc(-c2ccnc3cc(-c4ccc(C(=O)N5CCC(O)CC5)cc4F)oc23)ccc1OC1CCOCC1 [Compound A113]	< 300 nM	< 300 nM
N#Cc1cc(-c2ccnc3cc(-c4ccc(C(=O)N5CCNCC5)cc4)oc23)ccc1N1CCCC1 [Compound A72]	< 300 nM	< 300 nM
N#Cc1cc(-c2ccnc3cc(-c4cccc5[nH]ccc45)oc23)ccc1OC1CCOCC1 [Compound A58]	< 300 nM	< 300 nM
N#Cc1cc(-c2ccnc3cc(-c4ccc(C(=O)N5CCNCC5)cc4)oc23)ccc1OCC1CC1 [Compound A40]	< 300 nM	< 300 nM
CN(CCO)C(=O)c1ccc(-c2cc3nccc(-c4ccc(OCC5CC5)c(C#N)c4)c3o2)cc1 [Compound A41]	< 300 nM	< 300 nM
N#Cc1cc(-c2ccnc3cc(-c4ccc(C(=O)N5CCNCC5)cc4)oc23)ccc1OCC1CCC1 [Compound A38]	< 300 nM	< 300 nM
CN1CCN(C(=O)c2ccc(-c3cc4nccc(-c5ccc(N6CCOCC6)c(C#N)c5)c4o3)cc2)CC1 [Compound A76]	< 300 nM	< 300 nM
CN(CCO)C(=O)c1ccc(-c2cc3nccc(-c4ccc(OC5CCOCC5)c(C#N)c4)c3s2)cc1 [Compound A44]	< 300 nM	< 300 nM
COc1cc(-c2cc3nccc(-c4ccc(OC5CCOC5)c(C#N)c4)c3s2)ccc1C(=O)N1CCNCC1 (stereo not drawn) [Compound A100]	< 300 nM	< 300 nM
CN1CCN(C(=O)c2ccc(-c3cc4nccc(-c5ccc(OC6CCOCC6)c(C#N)c5)c4s3)cc2)CC1 [Compound A45]	< 300 nM	< 300 nM
CN1CCN(C(=O)c2ccc(-c3cc4nccc(-c5ccc(OCC6CCC6)c(C#N)c5)c4o3)cc2)CC1 [Compound A37]	< 300 nM	< 300 nM
CC(CO)(CCl)COc1ccc(-c2ccnc3cc(-c4ccc(C(=O)N5CCNCC5)cc4)oc23)cc1C#N (stereo not drawn) [Compound A59]	< 300 nM	< 300 nM
CN1CCN(C(=O)c2ccc(-c3cc4nccc(-c5ccc(OC6CCOC6)c(C#N)c5)c4o3)cc2)CC1 (stereo not drawn) [Compound A42]	< 300 nM	< 300 nM

The next lines start with the values.

IC50 [1]	IC50 [2]	SMILES
< 300 nM	< 300 nM	Cc1ccc(-c2cc3nccc(-c4ccc(OC5CCOCC5)c(C#N)c4)c3o2)o1 [Compound A49]
< 300 nM	< 300 nM	COc1cc(-c2cc3nccc(-c4ccc(OC5CCOCC5)c(C#N)c4)c3s2)ccc1C(=O)N1CCNCC1 [Compound A52]
3000 to 50000 nM	3000 to 50000 nM	N#Cc1cc(-c2ccnc3cc(-c4ccc(C(N)=O)cc4)oc23)ccc1OC1CCOCC1 [Compound A18, 4-{7-[3-cyano-4-(tetrahydro-pyran-4-yloxy)-phenyl]-furo[3,2-b]pyridin-2-yl}-benzamide]
< 300 nM	< 300 nM	N#Cc1cc(-c2ccnc3cc(-c4ccc(C(=O)N5CCNCC5)cc4)oc23)ccc1OC1CCOCC1 [Compound A34, 5-{2-[4-(piperazine-1-carbonyl)-phenyl]-furo[3,2-b]pyridin-7-yl}-2-(tetrahydro-pyran-4-yloxy)-benzonitrile]
< 300 nM	< 300 nM	COc1cc(C(=O)N(C)CCO)ccc1-c1cc2nccc(-c3ccc(OC4CCOCC4)c(C#N)c3)c2o1 [Compound A115]
< 300 nM	< 300 nM	COc1cc(C(=O)N(C)C)ccc1-c1cc2nccc(-c3ccc(OC4CCOCC4)c(C#N)c3)c2o1 [Compound A117]
< 300 nM	< 300 nM	CCOc1ncccc1-c1cc2nccc(-c3ccc(OC4CCOCC4)c(C#N)c3)c2o1 [Compound A64]
< 300 nM	< 300 nM	N#Cc1cc(-c2ccnc3cc(-c4ccc(C(=O)N5CCOCC5)cc4F)oc23)ccc1OC1CCOCC1 [Compound A114]
300 to 3000 nM	300 to 3000 nM	N#Cc1cc(-c2ccnc3cc(-c4ccc(C(=O)NC5COc6ccccc6C5)cc4)oc23)ccc1OC1CCOCC1 (stereo not drawn) [Compound A82]
< 300 nM	< 300 nM	N#Cc1cc(-c2ccnc3cc(-c4cncc(C(=O)N5CCOCC5)c4)oc23)ccc1OC1CCOCC1 [Compound A65]
< 300 nM	< 300 nM	COCCN(C)C(=O)c1ccc(-c2cc3nccc(-c4ccc(OC5CCOCC5)c(C#N)c4)c3o2)cc1 [Compound A26, 4-{7-[3-cyano-4-(tetrahydro-pyran-4-yloxy)-phenyl]-furo[3,2-b]pyridin-2-yl}-N-(2-methoxy-ethyl)-N-methyl-benzamide]
< 300 nM	< 300 nM	N#Cc1cc(-c2ccnc3cc(-c4ccc(N5CCOCC5)nc4)oc23)ccc1OC1CCOCC1 [Compound A56]
< 300 nM	< 300 nM	COc1cc(-c2cc3nccc(-c4ccc(OC5CCOCC5)c(C#N)c4)c3o2)ccc1C(=O)N1CC[C@H](O)C1 [Compound A92]
< 300 nM	< 300 nM	COc1cc(-c2cc3nccc(-c4ccc(OC5CCOCC5)c(C#N)c4)c3o2)ccc1C(=O)N1CCOCC1 [Compound A104]
< 300 nM	< 300 nM	CN(C)C(=O)c1ccc(-c2cc3nccc(-c4ccc(OC5CCOCC5)c(C#N)c4)c3o2)cc1 [Compound A23, 4-{7-[3-cyano-4-(tetrahydro-pyran-4-yloxy)-phenyl]-furo[3,2-b]pyridin-2-yl}-N,N-dimethyl-benzamide]
3000 to 50000 nM	3000 to 50000 nM	N#Cc1cc(-c2ccnc3cc(-c4ccc5[nH]c(=O)[nH]c5c4)oc23)ccc1OC1CCOCC1 [Compound A14, 5-[2-(2-oxo-2,3-dihydro-1H-benzoimidazol-5-yl)-furo[3,2-b]pyridin-7-yl]-2-(tetrahydro-pyran-4-yloxy)-benzonitrile]
< 300 nM	< 300 nM	N#Cc1cc(-c2ccnc3cc(-c4cnn(CCN5CCOCC5)c4)oc23)ccc1OC1CCOCC1 [Compound A48]
< 300 nM	< 300 nM	COc1cc(-c2cc3nccc(-c4ccc(OC5CCOCC5)c(C#N)c4)c3o2)ccc1C(=O)NCCN1CCNC1=O [Compound A87]
< 300 nM	< 300 nM	CN1CCN(C(=O)c2ccc(-c3cc4nccc(-c5ccc(OC6CCOCC6)c(C#N)c5)c4o3)cc2)CC1 [Compound A17, 5-{2-[4-(4-Methyl-piperazine-1-carbonyl)-phenyl]-furo[3,2-b]pyridin-7-yl}-2-(tetrahydro-pyran-4-yloxy)-benzonitrile]
